Results on three substances are retold here after patent US6958215B1, “Methods and compositions for inhibition of RNA splicing” (priority 1999, dated 2005).

The test system of series [1] is P. carinii rRNA precursor (P-h) containing a Group I intron. Kind of series: Inhibition of self-splicing, internally radiolabeled P-h precursor, gel assay. The class given is biochemical, Pneumocystis carinii. Conditions: 2 mM Mg2+, up to 30 μM oligonucleotide, 1 mM pG.
For series [2] the test system is unchanged. Kind of series: Fate of 5′ end radiolabeled hexamer with unlabeled P-h precursor (trans-splicing). As to conditions: 0, 2, 3, or 15 mM Mg2+. The series is classed as biochemical, Pneumocystis carinii. The method, then: The fate of the hexamers, (dA)n(dT)n(dG)n(dA)n(dC)n(rU) [Seq. ID No:1] and (dC)n(dA)n(dG)n(dT)n(dA)n(rU) [Seq. ID No:5], was also analyzed using radiolabeled hexamer and unlabeled precursor in the presence and absence of pG colactor. Approximately 300 nM unlabeled P-h precursor was reannealed at 55° C. in 3 μL of the appropriate buffer for 5 min and slow cooled to 37° C. A 3 μL solution of […] 5′ end radiolabeled hexamer in the same buffer at 37° C. was added and the reaction was allowed to proceed for 1 h. The reaction was quenched by the addition of 6 μL of 2× stop buffer and the reactants and products were separated on a 10% polyacrylamide, 8 M urea gel. The gel was dried under vacuum and the bands quantified with a Molecular Dynamics phosphorimager.

Series [3] shares this test system. Kind of series: Oligonucleotide concentration dependence of cis- and trans-splicing, 3′ end radiolabeled P-h precursor. The series is classed as biochemical, Pneumocystis carinii. Conditions: up to 30 μM oligonucleotide, 4 mM Mg2+.
Series [4] relates to C-10/1x ribozyme. Kind of series: Binding to C-10/1x ribozyme, competitive band-shift native electrophoresis. Also noted: species or system Candida albicans. As to conditions: H15Mg buffer; for Binding to C-10/1x ΔG*37,C-10/1x: calculated from Kd, T = 310 K; for Tertiary Stability BETI (binding enhanced by tertiary interactions): calculated using Kd values; for Tertiary Stability ααG°37,BETI: difference in ΔG°37 for binding to C-10/1x and r(GGAGGC). The method, then: C-10/1x is a Candida albicans rRNA Group I ribozyme. Dissociation constants for 5′ exon oligonucleotide mimics which bind to the C-10/1x ribozyme were measured by competitive band-shift native electrophoresis using methods described in Testa et al., Biochemistry 37:9379-9385 (1998). The results for a variety of oligonucleotides complementary or containing a one base mismatch to the C-10/1x 5′ exon guide sequence are shown in Table 2.

The subject of series [5] is r(GGAGGC). Kind of series: Base-pairing to r(GGAGGC), thermodynamic melts. The series is classed as binding. Conditions: H15Mg buffer; for Kd: calculated from ΔG°37, read-out: Binding to r(GGAGGC) Kd,B.P.

[np] = N3'→P5' phosphoramidate internucleoside linkage; d = 2'-deoxy (DNA); r = 2'-OH (RNA)

Turning to “(dC)n(dA)n(dG)n(dT)n(dA)n(rU) (CAGTAU; sugars from the 5' end d5 r1, all [np], methylation of C not given here) [reference compound]”, the “increase in the 5′ exon-intron product” value in series [1] is listed as “does not occur”. Besides, the “reactivity of 5′ radiolabeled hexamer with unlabeled precursor” value in series [2] is given as “not reactive”. Besides, in series [3], the “formation of trans-spliced product” value is reported as “not formed”.

Regarding r(GCCUCU) [reference compound], in series [4], the Kd was found to be 0.0007 µM, the “Binding to C-10/1x ΔG*37,C-10/1x” value is -13.0 kcal/mol, the “Tertiary Stability BETI (binding enhanced by tertiary interactions)” value was 1500 and the “Tertiary Stability ααG°37,BETI” value was -4.5 kcal/mol. For the same substance, in series [5], the “Binding to r(GGAGGC) ΔG°37,B.P.” value was -8.5 kcal/mol and the Kd was 100 µM.

For the substance r(GACUCU) [reference compound], in series [4], the Kd came out at 0.0069 µM, the “Binding to C-10/1x ΔG*37,C-10/1x” value was -11.6 kcal/mol, the “Tertiary Stability BETI (binding enhanced by tertiary interactions)” value was 4800000 and the “Tertiary Stability ααG°37,BETI” value was -9.5 kcal/mol. Further, in series [5], the “Binding to r(GGAGGC) ΔG°37,B.P.” value was -2.1 kcal/mol and the dissociation constant (Kd) is 600 µM.
